Where two headings read alike, the source gives them in different places.
What was measured:
[1] = Acute oral toxicity in mice; details: mouse, in vivo, single dose, female mice, 10 days, limits after the slash
Method: (§1) The 2-phenyl-2-carboxyethyl 1-(p-chlorobenzoyl)-5-methoxy-2-methyl-3-indolylacetate prepared in accordance with the invention was evaluated by comparison with 1-(p-chlorobenzoyl-5-methoxy-2-methyl-3-indolylacetic acid), the widely-used anti-inflammatory substance indomethacin. The two compounds were compared upon oral administration of their aqueous suspensions, with the addition of gum arabic, into the stomachs of test animals using a flexible metallic probe.
(§2) Acute toxicity was determined by administering both compounds in a single dose to female mice weighing 16-20 grams (groups of ten) and female rats weighing 130-150 grams (groups of ten). The mortality rate was followed for 10 days after administration of the dosage. The median lethal doses, LD50, are set forth in Table I below and were calculated by the method of J. Berkson, J. Am. Stat. Assoc. 50, 529, (1955).

[2] = Acute oral toxicity in rats; details: rat, in vivo, single dose, female rats, 10 days, limits after the slash
Method: as §1, §2

kaolin oedema = experiment: Kaolin oedema inhibition; format: in vivo; details: 1 mg/kg p.o., one hour before kaolin, male rats, vs untreated control
Method: as §1
(§3) Anti-inflammatory activity was evaluated on kaolin oedema, carrageenin oedema and Freund adjuvant disease as standard model inflammatory syndromes in a group of six male rats.
The kaolin oedema of an extremity (J. Hillebrecht, Arzneim.-Forsch. 9, 625 (1969)) was produced in male rats weighing 130-150 grams by subplanatary injection of a 10% aqueous suspension of kaolin (0.1 ml). The indolylacetate of the invention and indomethacin were administered one hour before the injection of the suspension. The oedema size was measured 30 minutes, 3, 4.5 and 6 hours after the injection. The activity is conveniently expressed in percent of rate of inhibition in comparison with the untreated control group, the results being summarized in Table II below.

carrageenin oedema = experiment: Carrageenin oedema inhibition; format: in vivo; details: 1.5 mg/kg p.o., male rats, vs untreated control
Method: as §1, §3
The carrageenin oedema (Ch. Winter, Proc. Soc. Exp. Biol. Med. 111, 544 (1962)) was produced in male rats weighing 130-150 grams by subplanatary injection of a 0.5% carrageenin solution (0.1 ml). The dosage schedule and assay procedure as well as the results were identical with those described above for the kaolin oedema inhibition test.

mice = experiment: Analgesic activity, intraperitoneal irritation test with 3% acetic acid; format: in vivo, female mice; details: Mus musculus, read-out: ED50 (analgesic activity)
Method: as §1
Analgesic activity was evaluated by the intraperitoneal irritation test with 3% acetic acid (L. B. Wilkin et al., J. Pharm. 133, 400 (1961)) in female mice weighing 16-20 grams (groups of 12 animals).

gastric mucosa = format: in vivo; details: 8 mg/kg oral, starving female rats
Method: as §1
Gastrotoxicity (adversary effect on gastric mucosa, A. Robert, J. E. Nezamis, Proc. Soc. Exp. Biol. Med. 99, 443 (1958)) was monitored by oral administration of the compounds being compared by testing starving female rats of 250-300 grams body weight (group of six animals). The evaluation was made by estimating the frequency of gastric erosions and ulcers. The relative gastrotoxicity of the two compounds is expressed by the respective standard criteria, ulceration index, as indicated in Table IV below.

| Compound | LD50 at 240 h [1] [mg/kg] | LD50 at 240 h [2] [mg/kg] | Kaolin oedema inhibition (kaolin oedema) [%] | Carrageenin oedema inhibition (carrageenin oedema) [%] | ED50 (mice; po) [mg/kg] | Ulceration Index (gastric mucosa) | ED50 (mice; oral, female mice, 3% acetic acid i.p.) [mg/kg] |
| --- | --- | --- | --- | --- | --- | --- | --- |
| COc1ccc2c(c1)c(CC(=O)O)c(C)n2C(=O)c1ccc(Cl)cc1 [Indomethacin, 1-(p-chlorobenzoyl)-5-methoxy-2-methyl-3-indolylacetic acid] | 18 | 25 | 19 | 14 | 14.5 | 300 |  |
| COc1ccc2c(c1)c(CC(=O)OCC(C(=O)O)c1ccccc1)c(C)n2C(=O)c1ccc(Cl)cc1 (centres unmarked) [Compound of Invention, 2-phenyl-2-carboxyethyl 1-(p-chlorobenzoyl)-5-methoxy-2-methyl-3-indolylacetate] | 190 | 140 | 16 | 15 |  |  | 24.5 |

From patent US4136194A, “2-Phenyl-2-carboxyethyl 1-(p-chlorobenzoyl)-5-methoxy-2-methyl-3-indolylacetate and process for preparation thereof” (SPOFA, United Pharmaceutical Works, priority 1976, dated 1979)
